Results: the NIST ThermoML archive (doi:10.1016/j.jct.2014.07.026)

Test: mn = molality of the nth substance listed, in mol/kg
Conditions: 100 kPa, Liquid; for mass density: Vibrating tube method; for speed of sound: Frequency=2 MHz, Linear variable-path acoustic interferometer

CCCCn1cc[n+](C)c1.NCC(=O)[O-] [1-butyl-3-methylimidazolium glycinate] + O
Conditions | mass density [kg/m3] | speed of sound [m/s]
293.15 K, m1 = 0.03911 | 999.516 | –
293.15 K, m1 = 0.05766 | 1000.13 | –
293.15 K, m1 = 0.07571 | 1000.71 | –
293.15 K, m1 = 0.09405 | 1001.28 | –
293.15 K, m1 = 0.1177 | 1002.03 | –
293.15 K, m1 = 0.1634 | 1003.42 | –
293.15 K, m1 = 0.2013 | 1004.58 | –
293.15 K, m1 = 0.2535 | 1006.13 | –
293.15 K, m1 = 0.2905 | 1007.2 | –
293.15 K, m1 = 0.3496 | 1008.89 | –
293.15 K, m1 = 0.4089 | 1010.57 | –
293.15 K, m1 = 0.4607 | 1012 | –
293.15 K, m1 = 0.5188 | 1013.58 | –
298.15 K, m1 = 0.03911 | 998.332 | –
298.15 K, m1 = 0.05112 | – | 1505.2
298.15 K, m1 = 0.05766 | 998.92 | –
298.15 K, m1 = 0.07571 | 999.491 | –
298.15 K, m1 = 0.09405 | 1000.03 | –
298.15 K, m1 = 0.1057 | – | 1512.8
298.15 K, m1 = 0.1177 | 1000.77 | –
298.15 K, m1 = 0.1479 | – | 1518.7
298.15 K, m1 = 0.1634 | 1002.14 | –
298.15 K, m1 = 0.1966 | – | 1525.4
298.15 K, m1 = 0.2013 | 1003.25 | –
298.15 K, m1 = 0.2458 | – | 1531.5
298.15 K, m1 = 0.2535 | 1004.78 | –
298.15 K, m1 = 0.2904 | – | 1537.8
298.15 K, m1 = 0.2905 | 1005.83 | –
298.15 K, m1 = 0.3486 | – | 1545.1
298.15 K, m1 = 0.3496 | 1007.53 | –
298.15 K, m1 = 0.4012 | – | 1551.1
298.15 K, m1 = 0.4089 | 1009.11 | –
298.15 K, m1 = 0.4523 | – | 1557.8
298.15 K, m1 = 0.4607 | 1010.51 | –
298.15 K, m1 = 0.5188 | 1012.11 | –
298.15 K, m1 = 0.5271 | – | 1566.9
303.15 K, m1 = 0.03911 | 996.915 | –
303.15 K, m1 = 0.05766 | 997.485 | –
303.15 K, m1 = 0.07571 | 998.049 | –
303.15 K, m1 = 0.09405 | 998.596 | –
303.15 K, m1 = 0.1177 | 999.306 | –
303.15 K, m1 = 0.1634 | 1000.64 | –
303.15 K, m1 = 0.2013 | 1001.73 | –
303.15 K, m1 = 0.2535 | 1003.2 | –
303.15 K, m1 = 0.2905 | 1004.25 | –
303.15 K, m1 = 0.3496 | 1005.87 | –
303.15 K, m1 = 0.4089 | 1007.48 | –
303.15 K, m1 = 0.4607 | 1008.89 | –
303.15 K, m1 = 0.5188 | 1010.43 | –
308.15 K, m1 = 0.03804 | 995.245 | –
308.15 K, m1 = 0.05959 | 995.908 | –
308.15 K, m1 = 0.07881 | 996.479 | –
308.15 K, m1 = 0.09916 | 997.101 | –
308.15 K, m1 = 0.1199 | 997.708 | –
308.15 K, m1 = 0.1512 | 998.623 | –
308.15 K, m1 = 0.206 | 1000.16 | –
308.15 K, m1 = 0.2462 | 1001.31 | –
308.15 K, m1 = 0.2873 | 1002.43 | –
308.15 K, m1 = 0.359 | 1004.36 | –
308.15 K, m1 = 0.3954 | 1005.3 | –
308.15 K, m1 = 0.4498 | 1006.76 | –
308.15 K, m1 = 0.5188 | 1008.59 | –
313.15 K, m1 = 0.03949 | 993.444 | –
313.15 K, m1 = 0.05959 | 994.046 | –
313.15 K, m1 = 0.07881 | 994.62 | –
313.15 K, m1 = 0.09916 | 995.217 | –
313.15 K, m1 = 0.1199 | 995.816 | –
313.15 K, m1 = 0.1512 | 996.706 | –
313.15 K, m1 = 0.206 | 998.24 | –
313.15 K, m1 = 0.2462 | 999.361 | –
313.15 K, m1 = 0.2873 | 1000.45 | –
313.15 K, m1 = 0.359 | 1002.39 | –
313.15 K, m1 = 0.3954 | 1003.31 | –
313.15 K, m1 = 0.4498 | 1004.72 | –
313.15 K, m1 = 0.5188 | 1006.52 | –

CC(C)[C@H](N)C(=O)[O-].CCCCn1cc[n+](C)c1 [1-butyl-3-methylimidazolium L-valinate] + O
Conditions | mass density [kg/m3] | speed of sound [m/s]
293.15 K, m1 = 0.03333 | 999.132 | –
293.15 K, m1 = 0.05233 | 999.647 | –
293.15 K, m1 = 0.07111 | 1000.15 | –
293.15 K, m1 = 0.08607 | 1000.55 | –
293.15 K, m1 = 0.1001 | 1000.93 | –
293.15 K, m1 = 0.138 | 1001.93 | –
293.15 K, m1 = 0.1804 | 1003.02 | –
293.15 K, m1 = 0.2187 | 1004 | –
293.15 K, m1 = 0.2653 | 1005.21 | –
293.15 K, m1 = 0.3295 | 1006.77 | –
293.15 K, m1 = 0.3595 | 1007.51 | –
293.15 K, m1 = 0.4046 | 1008.61 | –
293.15 K, m1 = 0.4561 | 1009.85 | –
298.15 K, m1 = 0.03333 | 997.952 | –
298.15 K, m1 = 0.05233 | 998.454 | –
298.15 K, m1 = 0.06361 | – | 1509.7
298.15 K, m1 = 0.07111 | 998.947 | –
298.15 K, m1 = 0.08607 | 999.329 | –
298.15 K, m1 = 0.1001 | 999.708 | –
298.15 K, m1 = 0.1178 | – | 1519.6
298.15 K, m1 = 0.138 | 1000.66 | –
298.15 K, m1 = 0.1494 | – | 1525.3
298.15 K, m1 = 0.1804 | 1001.72 | –
298.15 K, m1 = 0.2009 | – | 1534.4
298.15 K, m1 = 0.2187 | 1002.66 | –
298.15 K, m1 = 0.2467 | – | 1542.1
298.15 K, m1 = 0.2653 | 1003.87 | –
298.15 K, m1 = 0.2965 | – | 1550.5
298.15 K, m1 = 0.3295 | 1005.34 | –
298.15 K, m1 = 0.3434 | – | 1558.2
298.15 K, m1 = 0.3595 | 1006.08 | –
298.15 K, m1 = 0.4046 | 1007.11 | –
298.15 K, m1 = 0.4049 | – | 1568.3
298.15 K, m1 = 0.4496 | – | 1575.2
298.15 K, m1 = 0.4561 | 1008.32 | –
298.15 K, m1 = 0.513 | – | 1584.9
298.15 K, m1 = 0.5714 | – | 1593.8
303.15 K, m1 = 0.03333 | 996.535 | –
303.15 K, m1 = 0.05233 | 997.021 | –
303.15 K, m1 = 0.07111 | 997.503 | –
303.15 K, m1 = 0.08607 | 997.878 | –
303.15 K, m1 = 0.1001 | 998.242 | –
303.15 K, m1 = 0.138 | 999.178 | –
303.15 K, m1 = 0.1804 | 1000.22 | –
303.15 K, m1 = 0.2187 | 1001.13 | –
303.15 K, m1 = 0.2653 | 1002.26 | –
303.15 K, m1 = 0.3295 | 1003.73 | –
303.15 K, m1 = 0.3595 | 1004.44 | –
303.15 K, m1 = 0.4046 | 1005.44 | –
303.15 K, m1 = 0.4561 | 1006.67 | –
308.15 K, m1 = 0.03234 | 994.871 | –
308.15 K, m1 = 0.05133 | 995.354 | –
308.15 K, m1 = 0.06493 | 995.698 | –
308.15 K, m1 = 0.08884 | 996.286 | –
308.15 K, m1 = 0.1058 | 996.698 | –
308.15 K, m1 = 0.1347 | 997.389 | –
308.15 K, m1 = 0.181 | 998.492 | –
308.15 K, m1 = 0.2182 | 999.371 | –
308.15 K, m1 = 0.2583 | 1000.3 | –
308.15 K, m1 = 0.3177 | 1001.66 | –
308.15 K, m1 = 0.3591 | 1002.6 | –
308.15 K, m1 = 0.4041 | 1003.61 | –
308.15 K, m1 = 0.4561 | 1004.69 | –
313.15 K, m1 = 0.03234 | 993.036 | –
313.15 K, m1 = 0.05133 | 993.509 | –
313.15 K, m1 = 0.06493 | 993.842 | –
313.15 K, m1 = 0.08884 | 994.427 | –
313.15 K, m1 = 0.1058 | 994.828 | –
313.15 K, m1 = 0.1347 | 995.499 | –
313.15 K, m1 = 0.181 | 996.579 | –
313.15 K, m1 = 0.2182 | 997.425 | –
313.15 K, m1 = 0.2583 | 998.325 | –
313.15 K, m1 = 0.3177 | 999.623 | –
313.15 K, m1 = 0.3591 | 1000.51 | –
313.15 K, m1 = 0.4041 | 1001.5 | –
313.15 K, m1 = 0.4561 | 1002.64 | –
